Experimental data from paper PMC2861598, “Ligand Binding and Crystal Structures of the Substrate-Binding Domain of the ABC Transporter OpuA” (PLoS ONE, 2010).
“And” between values parts separate entries of the source, which are not always exact repeats. Equal values may be shown once. “Also recorded” adds a separate entry of the source. Read-outs that look alike come from different tables or passages of the source.

Assays:
[1] = molecular target: T1, OpuAC (substrate-binding domain of OpuA) (Lactococcus lactis, UniProt Q9RQ05); assay: Ligand binding to purified OpuAC, intrinsic protein fluorescence (direct titration); conditions: for ΔFmax: pH7.0
T1 sequence (Q9RQ05 320-573): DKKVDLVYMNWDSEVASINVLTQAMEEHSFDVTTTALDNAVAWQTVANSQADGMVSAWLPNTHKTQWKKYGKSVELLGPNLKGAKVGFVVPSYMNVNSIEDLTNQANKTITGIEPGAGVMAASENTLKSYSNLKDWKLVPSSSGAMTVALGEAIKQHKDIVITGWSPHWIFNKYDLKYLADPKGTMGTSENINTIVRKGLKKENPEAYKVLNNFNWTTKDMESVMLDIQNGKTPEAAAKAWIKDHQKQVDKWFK
Method: (§1) Fluorescence spectra were obtained with a Fluorolog®-3 (Jobin Yvon) spectrofluorometer. A quartz-cuvette containing 800 µL of protein sample was incubated for 10 minutes at 25°C under constant stirring before stepwise addition of the substrate (or buffer as control), using a Hamilton syringe pump (Harvard apparatus). Samples were incubated for 5 seconds before the fluorescence signal was collected for 20 seconds to obtain an averaged value at each substrate concentration.
(§2) For the intrinsic protein fluorescence measurements, the excitation and emission wavelengths were 295 and 360 nm (and slit widths of 1 and 5 nm), respectively. To determine the salt dependence of ligand-binding to purified OpuA, the buffer was exchanged to various KPi concentrations (12.5–250 mM), pH 7.0, 20% glycerol and 0.05% DDM, using a NAP10 column (GE Healthcare). Corrections for background fluorescence changes were made by titrations with buffer.
(§3) Fluorescence titrations were analyzed essentially as described by Lanfermeijer. Curve fitting was performed in Origin (OriginLab).

[2] = system: OpuA reconstituted in proteoliposomes; assay: Substrate transport in OpuA-containing proteoliposomes, filter-based assay; assay type: biochemical, Lactococcus lactis; conditions: 14C-labeled substrate, 50 µM (51 µM) or 5 mM, up to 30 min, 200 mM KPi pH 7 external
Method: Proteoliposomes were prepared as described previously by Geertsma et al. with an ATP regenerating system present and using 200 mM KPi, pH 7, as external medium. The transport activity was measured using a filter-based assay as described by Geertsma et al. in a time dependent way (up to 30 min), using a fixed concentration of 50 µM or 5 mM of substrate.

[3] = molecular target: T2, OpuAC (Lactococcus lactis, UniProt Q9RQ05); assay: Competitive inhibition of glycine betaine-induced fluorescence changes; assay type: binding
T2 sequence (Q9RQ05 320-573): T1 sequence (Q9RQ05 320-573)
Method: as §1, §2, §3

[4] = molecular target: OpuA in a lipidic environment; design: method as in PMID 14609945; conditions: read-out: dissociation constant; cited from earlier work
[5] = system: OpuAΔSBD; assay: Ligand binding to OpuAΔSBD; design: species or system Lactococcus lactis; conditions: data not shown
[6] = molecular target: T3, purified OpuA (Lactococcus lactis subsp. lactis, UniProt Q7DAU8); assay: Filter-based assay with radio-labeled glycine betaine (ammonium sulfate precipitation); assay type: binding
T3 sequence (Q7DAU8 1-573): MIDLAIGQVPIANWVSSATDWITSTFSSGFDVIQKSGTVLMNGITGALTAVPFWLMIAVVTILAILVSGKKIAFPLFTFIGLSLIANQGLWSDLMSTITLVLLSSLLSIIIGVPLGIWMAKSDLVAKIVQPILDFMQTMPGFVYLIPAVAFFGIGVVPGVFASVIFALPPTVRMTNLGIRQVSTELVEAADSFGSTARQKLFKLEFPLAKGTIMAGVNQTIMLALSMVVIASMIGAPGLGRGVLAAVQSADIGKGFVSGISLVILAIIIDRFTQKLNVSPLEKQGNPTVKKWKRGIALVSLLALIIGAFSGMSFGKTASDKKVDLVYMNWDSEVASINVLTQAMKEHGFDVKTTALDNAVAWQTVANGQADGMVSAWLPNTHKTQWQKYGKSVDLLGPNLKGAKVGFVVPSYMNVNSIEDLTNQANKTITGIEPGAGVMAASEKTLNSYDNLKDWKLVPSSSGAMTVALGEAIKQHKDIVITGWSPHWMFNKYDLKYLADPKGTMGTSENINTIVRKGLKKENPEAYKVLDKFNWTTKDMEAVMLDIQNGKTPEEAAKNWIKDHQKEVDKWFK
T3 sequence (Q9KIF7 1-408 partner): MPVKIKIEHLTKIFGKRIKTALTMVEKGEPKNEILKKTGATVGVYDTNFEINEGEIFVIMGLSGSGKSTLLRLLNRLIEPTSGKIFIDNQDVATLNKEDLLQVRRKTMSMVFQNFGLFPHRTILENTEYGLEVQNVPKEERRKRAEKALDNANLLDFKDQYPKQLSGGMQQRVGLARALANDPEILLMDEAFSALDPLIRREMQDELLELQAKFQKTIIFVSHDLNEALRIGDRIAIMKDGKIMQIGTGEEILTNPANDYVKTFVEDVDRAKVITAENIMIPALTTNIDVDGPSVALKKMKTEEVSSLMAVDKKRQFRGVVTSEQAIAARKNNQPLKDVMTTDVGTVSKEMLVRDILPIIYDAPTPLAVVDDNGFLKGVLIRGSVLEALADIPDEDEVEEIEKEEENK
Method: This method is based on the principle that upon salting-out of the protein (by ammonium sulfate), the substrate remains trapped in the ligand-binding site. For these measurements, purified OpuA in the presence of 0.05% (w/v) n-dodecyl-β-maltopyranoside (DDM) was mixed such that the protein (at a final concentration of 100 µg/mL) was in a buffer composed of 10, 50 or 250 mM KPi pH7.0, 20% glycerol and 0.05% DDM. The binding assays were carried in a volume of 100 µL. […] The mixture was filtered rapidly through 0.45 µm pore-size cellulose nitrate filters. The filters were washed twice with 2 ml ammonium sulfate solution. Subsequently, the filters were placed in an open plastic vial and dried under heating in an oven at 37°C for 2 hours. The radioactivity on the filters was measured via liquid scintillation counting, using emulsifier plus scintillation liquid (Perkin Elmer). Measurements were corrected for background signals and the average of the corrected data was fitted as described under fluorescence measurements.

[7] = system: OpuAΔCBS; assay: Ligand binding to OpuAΔCBS; design: species or system Lactococcus lactis; conditions: data not shown
[8] = molecular target: T2, OpuAC; assay: Isothermal titration calorimetry of glycine betaine binding; conditions: ITC
Method: 200 µL of OpuAC (concentrated to 50 µM in 150 mM KPi, pH 7) was added to the cell. […] Typically, 20 injections of 2 µL volume were made with intervals of 120 seconds between each addition.

[9] = molecular target: T3, purified OpuA; assay: Glycine betaine binding to purified DDM-solubilized OpuA, intrinsic protein fluorescence; conditions: for Kd / ΔFmax: pH7.0
Method: as §1, §2, §3

[10] = molecular target: T3, purified OpuA; assay: as above; conditions: OpuA solubilized in DDM; over all salt concentrations (10–250 mM KPi); read-out: dissociation constant (Kd)

## C[N+](C)(C)CC(O)CC(=O)[O-] (centres unmarked) [Carnitine]
[1]; ∼0.5 µM OpuAC
  fluorescence response on direct titration: did not reach a stable end-level
[2]
  transport into OpuA-containing proteoliposomes: not taken up
[3]
  Ki: 65000 ± 11000 µM

## C[N+]1(C)CCC[C@H]1C(=O)[O-] [Proline betaine]
[3]; inhibition of glycine betaine binding, ∼0.5 µM OpuAC
  Ki: 41 ± 8 µM
[3]; inhibition of glycine betaine binding, ∼0.5 µM OpuAC, listed as proline betaine
  Ki: ~41 µM

## O=C(O)[C@@H]1CCCN1 [Proline]
[2]
  transport into OpuA-containing proteoliposomes: no accumulation of the proline
[2]; listed as proline
  transport into OpuA-containing proteoliposomes: entered the vesicles slowly but at an equal rate in the proteoliposomes and the liposomes devoid of OpuA

## C[N+](C)(C)CC(=O)[O-] [glycine betaine]
[4]
  Kd: ~500 nM
[5]
  glycine betaine binding: did not show any glycine betaine binding
[1]; 19.6 µM OpuAC in 150 mM KPi pH 7.0
  bound glycine betaine: 0.74 mol glycine betaine per mol of OpuAC
[1]; 19.6 µM OpuAC in 150 mM KPi pH 7.0, data fit
  bound substrate: 14.5 ± 1.6 µM
[1]; OpuAC, 12.5 mM KPi
  ΔFmax: 23.6±1.1%
[1]; OpuAC, 50 mM KPi
  ΔFmax: 23.4±0.9%
[1]; OpuAC, 250 mM KPi
  ΔFmax: 23.1±1.2%
[1]; OpuAC, over all salt concentrations
  maximal fluorescence change: 23–24%
[1]; very high protein concentration
  amount of glycine betaine bound: 0.74 mol/mol OpuAC
[2]
  transport into OpuA-containing proteoliposomes: transported against a concentration gradient; also recorded: transport against a large concentration gradient
[6]; all salt concentrations
  maximal number of binding sites: ~3 nmol/mg OpuA
[6]; averaged from duplicate measurements for all salt concentrations (10, 50, 250 mM KPi), 30°C
  Kd: 7.3 µM
[7]
  effect of deletion of the CBS domains on dissociation constant: did not alter the dissociation constant
[8]; 50 µM OpuAC, 150 mM KPi pH 7, 25°C
  glycine betaine bound per mol of OpuAC: 0.7 mol
[8]; 25°C
  Gibbs free energy: -7.5 kcal/mol
  enthalpy change (ΔH): -3.8 ± 0.1 kcal/mol
[9]
  increase of dissociation constant in DDM-solubilized state versus lipidic environment: around 10 fold
[9]; 12.5 mM KPi
  Kd: 6 ± 0.5 µM
  ΔFmax: 9.9±0.3%
[9]; 50 mM KPi
  Kd: 6 ± 0.7 µM
  ΔFmax: 10.8±0.4%
[9]; 250 mM KPi
  Kd: 5.2 ± 0.2 µM
  ΔFmax: 9.3±0.2%
[9]; over all salt concentrations
  maximal fluorescence change: 9–11%
[10]
  Kd: 4 to 6 µM and 5 to 6 µM
